B1: 3-phosphoshikimate 1-carboxyvinyltransferase (Escherichia coli K-12), P0A6D3 (protein)
chain: MESLTLQPIARVDGTINLPGSKSVSNRALLLAALAHGKTVLTNLLDSDDVRHMLNALTALGVSYTLSADRTRCEIIGNGGPLHAEGALELFLGNAGTAMRPLAAALCLGSNDIVLTGEPRMKERPIGHLVDALRLGGAKITYLEQENYPPLRLQGGFTGGNVDVDGSVSSQFLTALLMTAPLAPEDTVIRIKGDLVSKPYIDITLNLMKTFGVEIENQHYQQFVVKGGQSYQSPGTYLVEGDASSASYFLAAAAIKGGTVKVTGIGRNSMQGDIRFADVLEKMGATICWGDDYISCTRGELNAIDMDMNHIPDAAMTIATAALFAKGTTTLRNIYNWRVKETDRLFAMATELRKVGAEVEEGHDYIRITPPEKLNFAEIATYNDHRMAMCFSLVALSDTPVTILDPKCTAKTFPDYFEQLARISQAA

Target: T1, Chorismate synthase (Streptococcus pneumoniae serotype 4 (strain ATCC BAA-334 / TIGR4), UniProt P0A2Y6)
T1 sequence (P0A2Y6 whole entry): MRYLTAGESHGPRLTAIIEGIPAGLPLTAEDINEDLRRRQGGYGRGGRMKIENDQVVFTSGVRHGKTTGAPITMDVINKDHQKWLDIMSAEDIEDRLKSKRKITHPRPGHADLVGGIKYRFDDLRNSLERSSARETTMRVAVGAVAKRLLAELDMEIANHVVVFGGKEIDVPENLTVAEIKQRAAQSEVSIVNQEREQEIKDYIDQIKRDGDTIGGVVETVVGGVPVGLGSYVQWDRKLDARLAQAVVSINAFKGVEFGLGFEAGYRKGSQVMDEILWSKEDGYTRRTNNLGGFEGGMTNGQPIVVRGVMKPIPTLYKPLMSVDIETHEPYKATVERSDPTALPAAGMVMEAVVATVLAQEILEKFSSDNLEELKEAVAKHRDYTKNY
Test: Inhibitory concentration against Streptococcus pneumoniae chorismate synthase; Not active; call rule not given here

| Molecule | IC50 |
| --- | --- |
| N#Cc1ccc(/C=C2/Oc3c(ccc(O)c3O)C2=O)cc1 | Not Active |
| Cc1ccc(/C=C2/Oc3c(ccc(O)c3O)C2=O)cc1 | Not Active |

Target: T1, Chorismate synthase
Test: Inhibitory concentration against Streptococcus pneumoniae chorismate synthase

| Molecule | IC50 [nM] |
| --- | --- |
| CCCCCCOc1ccc(/C=C2/Oc3c(ccc(O)c3O)C2=O)c(O)c1 | 320 |
| O=C1/C(=C\c2ccccc2[N+](=O)[O-])Oc2c1ccc(O)c2O | 2000 |
| CC(C)COc1ccc(/C=C2/Oc3c(ccc(O)c3O)C2=O)c(O)c1 | 580 |
| CCCCOc1ccc(/C=C2/Oc3c(ccc(O)c3O)C2=O)cc1 | 1500 |
| CCCOc1ccc(/C=C2/Oc3c(ccc(O)c3O)C2=O)c(O)c1 | 510 |
| CCOC(=O)CCCOc1ccc(/C=C2/Oc3c(ccc(O)c3O)C2=O)c(O)c1 | 650 |
| CC(C)Oc1ccc(/C=C2/Oc3c(ccc(O)c3O)C2=O)c(O)c1 | 1000 |
| O=C1/C(=C\c2ccc(C(F)(F)F)cc2)Oc2c1ccc(O)c2O | 7000 |
| CCCCCOc1ccc(/C=C2/Oc3c(ccc(O)c3O)C2=O)c(O)c1 | 220 |
| O=C1/C(=C\c2ccc(OCc3ccccc3)cc2O)Oc2c1ccc(O)c2O | 1000 |
| O=C1/C(=C\c2ccc(OCCCCO)cc2O)Oc2c1ccc(O)c2O | 860 |
| O=C(O)COc1ccc(/C=C2/Oc3c(ccc(O)c3O)C2=O)c(O)c1 | 2600 |
| O=C1/C(=C\c2ccc(OCCCCCCO)cc2O)Oc2c1ccc(O)c2O | 1600 |
| O=C(O)COc1ccccc1/C=C1/Oc2c(ccc(O)c2O)C1=O | 1800 |
| O=C1/C(=C\c2ccc(-n3ccnc3)cc2)Oc2c1ccc(O)c2O | 5100 |
| CCOc1ccc(/C=C2/Oc3c(ccc(O)c3O)C2=O)cc1 | 5800 |
| N#CCCCOc1ccc(/C=C2/Oc3c(ccc(O)c3O)C2=O)c(O)c1 | 1100 |
| O=C1/C(=C\c2ccc(OCCCO)cc2O)Oc2c1ccc(O)c2O | 2500 |
| O=C1/C(=C\c2ccc(N3CCOCC3)cc2)Oc2c1ccc(O)c2O | > 50000 |
| O=C1/C(=C\c2ccc(N3CCCC3)cc2)Oc2c1ccc(O)c2O | 5500 |

| Molecule | IC50 [nM] |
| --- | --- |
| O=C(O)CCCOc1ccc(/C=C2/Oc3c(ccc(O)c3O)C2=O)c(O)c1 | 1100 |
| COc1ccccc1/C=C1/Oc2c(ccc(O)c2O)C1=O | > 60000 |
| O=C1/C(=C\c2ccc([N+](=O)[O-])cc2)Oc2c1ccc(O)c2O | 4800 |
| CN(C)c1ccc(/C=C2/Oc3c(ccc(O)c3O)C2=O)cc1 | 25900 |
| Cc1ccccc1/C=C1/Oc2c(ccc(O)c2O)C1=O | 4000 |
| COc1ccc(/C=C2/Oc3c(ccc(O)c3O)C2=O)cc1 | 14300 |
| O=C(O)c1ccccc1/C=C1/Oc2c(ccc(O)c2O)C1=O | 10700 |
| CCN(CCO)c1ccc(/C=C2/Oc3c(ccc(O)c3O)C2=O)c(C)c1 | 3400 |
| CCN(CC)c1ccc(/C=C2/Oc3c(ccc(O)c3O)C2=O)c(O)c1 | 5000 |
| O=C(O)c1ccc(/C=C2/Oc3c(ccc(O)c3O)C2=O)cc1 | 24000 |
| O=C1/C(=C\c2ccccc2)Oc2c1ccc(O)c2O | 3500 |
| CCOC(=O)COc1ccc(/C=C2/Oc3c(ccc(O)c3O)C2=O)c(O)c1 | 10300 |
| COc1ccc(/C=C2/Oc3c(ccc(O)c3O)C2=O)c(O)c1 | 700 |
| COc1cccc(/C=C2/Oc3c(ccc(O)c3O)C2=O)c1O | 1700 |
| O=C1/C(=C\c2ccccc2C(F)(F)F)Oc2c1ccc(O)c2O | 17300 |
| O=C1/C(=C\c2ccccc2Cl)Oc2c1ccc(O)c2O | 5200 |
| CCCCOc1ccc(/C=C2/Oc3c(ccc(O)c3O)C2=O)c(O)c1 | 450 |
| O=C1/C(=C\c2ccc(O)cc2)Oc2c1ccc(O)c2O | 15000 |
| O=C1/C(=C\c2ccc(F)cc2)Oc2c1ccc(O)c2O | > 60000 |
| O=C1/C(=C\c2ccccc2O)Oc2c1ccc(O)c2O | 800 |

Substrate: CCN(CC)c1ccc(/C=C2/Oc3c(ccc(O)c3O)C2=O)cc1
Test: not given

| Molecule | Km [µM] |
| --- | --- |
| B1 | 30 |

Target: Chorismate synthase (Streptococcus pneumoniae)
Test: Competitive inhibitory activity with respect to EPSP (5-enolpyruvyl-shikimate- 3-phosphate) at chorismate synthase

| Molecule | Ki [nM] |
| --- | --- |
| COc1ccc(/C=C2/Oc3c(ccc(O)c3O)C2=O)c(O)c1 | 100 |

Target: not listed separately
Test: (§1) Non-competitive inhibitory activity with respect to cofactor FMN

| Molecule | Ki [nM] |
| --- | --- |
| CCN(CC)c1ccc(/C=C2/Oc3c(ccc(O)c3O)C2=O)cc1 | 1700 |

Tested on: not listed separately
Test: as §1

| Molecule | Ki [nM] |
| --- | --- |
| COc1ccc(/C=C2/Oc3c(ccc(O)c3O)C2=O)c(O)c1 | 1400 |

Source: ChEMBL document CHEMBL1144965, “A series of 2(Z)-2-benzylidene-6,7-dihydroxybenzofuran-3[2H]-ones as inhibitors of chorismate synthase” (Bioorg Med Chem Lett, 2003)
